The values that follow come from patent US4459290A, “C-23-Modified derivatives of OMT, pharmaceutical compositions and method of use” (priority 1982, dated 1984).

Converted amounts (≈) assume the structure as drawn. Like-named read-outs stand apart in the source and are kept apart here. Where only a bound is given, the exact number is not on record here.

The test system of one assay is Staphylococcus aureus. In words: MIC, broth-dilution microtiter test (Table VII). The assay is classed as cell-based. Conditions: Staphylococcus aureus. A digest of the protocol: (§1)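 Growth inhibition in liquid medium, in a routine microtiter broth-dilution series, gave the MIC against staphylococci and pasteurellae; the gram-negative enteric strain was tested by conventional agar dilution instead.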

The subject of a further assay is Mycoplasma gallisepticum. Kind of assay: MIC, broth-dilution microtiter test (Table VII). It counts as cell-based. The note with it: Mycoplasmoides gallisepticum. Here is the method:
(§2) Especially noteworthy is the improved activity against gram-negative bacteria for several derivatives when compared to the activity of OMT. […] The MIC's in Tables V and VI were determined by standard agar-dilution assays. The MIC's in Table VII were obtained using a conventional broth-dilution microtiter test.

Another assay has as its system Mycoplasma hyorhinis. In words: MIC, broth-dilution microtiter test (Table VII). The note with it: M. hyorhinis; broth-dilution microtiter; read-out: MIC. It counts as cell-based. Here is the method:
as §2

Assay [1] relates to Pasteurella hemolytica 23C. Kind of assay: MIC, broth-dilution microtiter test (Table VII). Conditions: Pasteurella, P. hemolytica 23C, read-out: MIC. It counts as cell-based. In outline: (§3)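 Each MIC derives from a dilution series, either on solid agar (Enterobacter aerogenes) or in liquid broth within microtiter plates (staphylococcal and Pasteurella strains).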
For assay [2], the system named is Pasteurella hemolytica 22C. Kind of assay: MIC, broth-dilution microtiter test (Table VII). Conditions: Pasteurella, P. hemolytica 22C, read-out: MIC. It counts as cell-based. A digest of the protocol:
as §3

Assay [3] has as its system Pasteurella multocida 40G. Kind of assay: MIC, broth-dilution microtiter test (Table VII). The assay is classed as cell-based. Conditions: Pasteurella multocida. In outline:
as §1

Assay [4] has as its system Pasteurella multocida 60A. Kind of assay: MIC, broth-dilution microtiter test (Table VII). The assay is classed as cell-based. Conditions: Pasteurella multocida; P. multocida 60A, avian isolate; broth-dilution microtiter; read-out: MIC. In outline: as §1
For another assay, the system named is Streptococcus sp. 80. In words: MIC, broth-dilution microtiter test (Table VII). The assay is classed as cell-based. Here is the method:
as §2

Assay [5] has as its system Pasteurella multocida 22A. In words: MIC, broth-dilution microtiter test (Table VII). It counts as cell-based. Conditions: Pasteurella multocida. In outline:
as §1

For assay [6], the system named is Pasteurella hemolytica 41D. In words: MIC, broth-dilution microtiter test (Table VII). The assay is classed as cell-based. Conditions: Pasteurella, P. hemolytica 41D, read-out: MIC. In outline:
as §3

Assay [7] relates to Pasteurella multocida 68C. Kind of assay: MIC, broth-dilution microtiter test (Table VII). It counts as cell-based. Conditions: Pasteurella multocida; P. multocida 68C; broth-dilution microtiter; read-out: MIC. A digest of the protocol:
as §1

Another assay has as its system Pasteurella multocida. In words: Protection of one-day-old chicks against Pasteurella multocida infection (Table IX). The assay is classed as in vivo. Conditions: subcutaneous 30 mg/kg × 2, 1 and 4 hours post-challenge. In outline: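 One-day-old chicks were challenged subcutaneously with 0.1 ml of a twenty-hour tryptose broth culture of avian P. multocida. Compound was given subcutaneously at 30 mg/kg, 1 and 4 hours post-challenge, and protection against death was followed, with non-medicated infected chicks as controls.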

In the next assay the test system is Escherichia coli TEM. Kind of assay: MIC, standard agar-dilution assay (Table V). It counts as cell-based. Conditions: Escherichia coli. Here is the method:
The MIC's in Tables V and VI were determined by standard agar-dilution assays. The MIC's in Table VII were obtained using a conventional broth-dilution microtiter test.

Where [8] appears, read: S. aureus, broth-dilution microtiter, read-out: MIC.
[9] abbreviates: M. gallisepticum, broth-dilution microtiter, read-out: MIC.
The mark [10] stands for this setting: P. multocida 40G, broth-dilution microtiter, read-out: MIC.
The mark [11] stands for this setting: Streptococcus sp. 80, broth-dilution microtiter, read-out: MIC.
[12] abbreviates: P. multocida 22A, broth-dilution microtiter, read-out: MIC.
The mark [13] stands for this setting: E. coli TEM, agar dilution, read-out: MIC.

Usually MIC stands for the lowest concentration that inhibits growth of the organism. For `CCC1OC(=O)CC(O)C(C)C(OC2OC(C)C(O)C(N(C)C)C2O)C(CC=O)CC(C)C(=O)C=CC(C)=CC1CSC(C)=O` (stereo not shown) [Compound 7, 23-Deoxy-23-(acetyl)thio-OMT], the MIC in the assay with Staphylococcus aureus (setting [8]) came out at 0.39 µg/mL (≈ 0.595 µM); with Mycoplasma gallisepticum (setting [9]) it was 0.19 µg/mL (≈ 0.29 µM); with Mycoplasma hyorhinis, 6.25 µg/mL (≈ 9.53 µM); in assay [1] it was 6.25 µg/mL (≈ 9.53 µM); in assay [2], 6.25 µg/mL (≈ 9.53 µM); in assay [3] (setting [10]), 0.78 µg/mL (≈ 1.19 µM). In addition, the MIC in assay [4] was determined as 3.12 µg/mL (≈ 4.76 µM); in the assay with Streptococcus sp. 80 (setting [11]) it was 0.39 µg/mL (≈ 0.595 µM); in assay [5] (setting [12]), 1.56 µg/mL (≈ 2.38 µM); in assay [6] it was 6.25 µg/mL (≈ 9.53 µM); in [7], 1.56 µg/mL (≈ 2.38 µM). Further, the “Number of deaths/number treated” value in the assay on Pasteurella multocida is recorded as 10/10.
Take `CCC1OC(=O)CC(O)C(C)C(OC2OC(C)C(O)C(N(C)C)C2O)C(CC=O)CC(C)C(=O)C=CC(C)=CC1CN=[N+]=[N-]` (stereo not shown) [Compound 8, 23-Deoxy-23-azido-OMT]: the MIC with Escherichia coli TEM was 16 µg/mL (≈ 25.7 µM); with Staphylococcus aureus (setting [8]), ≤ 0.78 µg/mL; with Mycoplasma gallisepticum (setting [9]), 0.39 µg/mL (≈ 0.626 µM); in the assay on Mycoplasma hyorhinis it was 3.12 µg/mL (≈ 5.01 µM); in assay [1] it was 6.25 µg/mL (≈ 10 µM); in assay [2], 6.25 µg/mL (≈ 10 µM). Also, the MIC is 1.56 µg/mL (≈ 2.5 µM) in assay [3] (setting [10]); 3.12 µg/mL (≈ 5.01 µM) in [4]; ≤ 0.78 µg/mL with Streptococcus sp. 80 (setting [11]); 1.56 µg/mL (≈ 2.5 µM) in assay [5] (setting [12]); 6.25 µg/mL (≈ 10 µM) in assay [6]; 1.56 µg/mL (≈ 2.5 µM) in [7]. For the same compound, in the assay with Pasteurella multocida, the “Number of deaths/number treated” value is recorded as 10/10.
`CCC1OC(=O)CC(O)C(C)C(OC2OC(C)C(O)C(N(C)C)C2O)C(CC=O)CC(C)C(=O)C=CC(C)=CC1CSc1nnnn1C` (stereo not shown) [Compound 5, 23-Deoxy-23-(1-methyltetrazol-5-yl)thio-OMT]: the MIC stood at 32 µg/mL (≈ 46 µM) in the assay with Escherichia coli TEM (setting [13]); 1.56 µg/mL (≈ 2.24 µM) against Staphylococcus aureus; 1.56 µg/mL (≈ 2.24 µM) against Mycoplasma gallisepticum; 6.25 µg/mL (≈ 8.98 µM) in the assay on Mycoplasma hyorhinis; 12.5 µg/mL (≈ 18 µM) in assay [1]; 12.5 µg/mL (≈ 18 µM) in assay [2]. For the same compound, the MIC in assay [3] (setting [10]) was 3.12 µg/mL (≈ 4.48 µM); in assay [4] it was 6.25 µg/mL (≈ 8.98 µM); against Streptococcus sp. 80 (Streptococcus, SP.80), 1.56 µg/mL (≈ 2.24 µM); in [5] (setting [12]) it was 6.25 µg/mL (≈ 8.98 µM); in [6], 12.5 µg/mL (≈ 18 µM); in assay [7], 6.25 µg/mL (≈ 8.98 µM). The “Number of deaths/number treated” value with Pasteurella multocida is 3/10.
With `CCC1OC(=O)CC(O)C(C)C(OC2OC(C)C(O)C(N(C)C)C2O)C(CC=O)CC(C)C(=O)C=CC(C)=CC1CSc1nnc(C)s1` (stereo not shown) [Compound 3, 23-Deoxy-23-(5-methyl-1,3,4-thiadiazol-2-yl)thio-OMT], the MIC is 32 µg/mL (≈ 44.9 µM) in the assay with Escherichia coli TEM (setting [13]); 0.78 µg/mL (≈ 1.1 µM) in the assay on Staphylococcus aureus (setting [8]); 0.19 µg/mL (≈ 0.267 µM) in the assay on Mycoplasma gallisepticum (setting [9]); 6.25 µg/mL (≈ 8.78 µM) in the assay on Mycoplasma hyorhinis; 6.25 µg/mL (≈ 8.78 µM) in assay [1]; 12.5 µg/mL (≈ 17.6 µM) in [2]. In addition, the MIC in assay [3] (setting [10]) is 1.56 µg/mL (≈ 2.19 µM); in assay [4] it was 6.25 µg/mL (≈ 8.78 µM); in the assay on Streptococcus sp. 80 (setting [11]), 0.39 µg/mL (≈ 0.548 µM); in assay [5] (22A), 3.12 µg/mL (≈ 4.38 µM); in assay [6], 6.25 µg/mL (≈ 8.78 µM); in assay [7], 6.25 µg/mL (≈ 8.78 µM). Besides, in the assay with Pasteurella multocida, the “Number of deaths/number treated” value was 10/10.
On to `CCC1OC(=O)CC(O)C(C)C(OC2OC(C)C(O)C(N(C)C)C2O)C(CC=O)CC(C)C(=O)C=CC(C)=CC1CSc1ccccc1` (stereo not shown) [Compound 2, 23-Deoxy-23-(phenyl)thio-OMT], for which the MIC against Escherichia coli TEM came to 8 µg/mL (≈ 11.6 µM); in the assay on Staphylococcus aureus (setting [8]), 0.39 µg/mL (≈ 0.565 µM); in the assay with Mycoplasma gallisepticum (setting [9]), 0.09 µg/mL (≈ 0.13 µM); in the assay on Mycoplasma hyorhinis, 12.5 µg/mL (≈ 18.1 µM); in assay [1], 3.12 µg/mL (≈ 4.52 µM); in assay [2] it was 3.12 µg/mL (≈ 4.52 µM). The MIC turned out to be 0.78 µg/mL (≈ 1.13 µM) in assay [3] (40G); 1.56 µg/mL (≈ 2.26 µM) in assay [4]; 0.09 µg/mL (≈ 0.13 µM) in the assay with Streptococcus sp. 80 (setting [11]); 1.56 µg/mL (≈ 2.26 µM) in assay [5] (setting [12]); 1.56 µg/mL (≈ 2.26 µM) in assay [6]; 1.56 µg/mL (≈ 2.26 µM) in assay [7]. Further, in the assay on Pasteurella multocida, the “Number of deaths/number treated” value is given as 10/10.
As to `CCC1OC(=O)CC(O)C(C)C(OC2OC(C)C(O)C(N(C)C)C2O)C(CC=O)CC(C)C(=O)C=CC(C)=CC1CF` (stereo not shown) [Compound 15, 23-Deoxy-23-fluoro-OMT], the MIC with Escherichia coli TEM is 8 µg/mL (≈ 13.3 µM); with Staphylococcus aureus (setting [8]), 1.56 µg/mL (≈ 2.6 µM); with Mycoplasma gallisepticum (setting [9]), 0.09 µg/mL (≈ 0.15 µM); in the assay on Mycoplasma hyorhinis, 0.78 µg/mL (≈ 1.3 µM); in [1], 6.25 µg/mL (≈ 10.4 µM); in assay [2] it was 3.12 µg/mL (≈ 5.2 µM). For the same compound, the MIC is 1.56 µg/mL (≈ 2.6 µM) in assay [3] (setting [10]); 3.12 µg/mL (≈ 5.2 µM) in assay [4]; ≤ 0.78 µg/mL in the assay on Streptococcus sp. 80 (setting [11]); 3.12 µg/mL (≈ 5.2 µM) in assay [5] (setting [12]); 3.12 µg/mL (≈ 5.2 µM) in [6]; 3.12 µg/mL (≈ 5.2 µM) in [7].
